Read-outs that look alike come from different tables or passages of the source. Blank lines part the entries; values can stand above or below the molecule they belong to.
Biological target: T1, SIRT1 (Homo sapiens, UniProt Q96EB6)
T1 sequence (Q96EB6 1-747): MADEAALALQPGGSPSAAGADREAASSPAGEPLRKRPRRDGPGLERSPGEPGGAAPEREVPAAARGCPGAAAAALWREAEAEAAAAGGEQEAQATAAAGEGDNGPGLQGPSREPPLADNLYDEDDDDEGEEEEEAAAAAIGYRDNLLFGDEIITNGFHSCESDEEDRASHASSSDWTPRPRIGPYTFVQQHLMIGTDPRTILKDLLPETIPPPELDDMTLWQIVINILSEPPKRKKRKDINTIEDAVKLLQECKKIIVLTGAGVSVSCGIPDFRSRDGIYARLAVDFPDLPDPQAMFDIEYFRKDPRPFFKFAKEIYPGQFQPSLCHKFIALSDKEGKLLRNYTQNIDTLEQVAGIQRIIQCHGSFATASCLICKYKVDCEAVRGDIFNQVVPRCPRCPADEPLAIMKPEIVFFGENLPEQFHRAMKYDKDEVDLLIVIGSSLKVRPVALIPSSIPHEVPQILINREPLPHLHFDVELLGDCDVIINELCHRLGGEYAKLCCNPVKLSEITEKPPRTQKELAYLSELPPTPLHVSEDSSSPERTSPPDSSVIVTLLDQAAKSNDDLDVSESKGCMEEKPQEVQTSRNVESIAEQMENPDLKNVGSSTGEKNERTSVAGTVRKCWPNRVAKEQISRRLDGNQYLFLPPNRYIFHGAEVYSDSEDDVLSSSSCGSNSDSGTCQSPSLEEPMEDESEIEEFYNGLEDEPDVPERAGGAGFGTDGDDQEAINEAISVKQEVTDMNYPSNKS
Experiment: Trp mass spectrometry assay of SIRT1 activation
Type: biochemical
Details: for TRP Activity (EC1.5): EC1.5 = concentration that results in 150% activation of SIRT1
How it was run: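 N-terminal His-tagged human SIRT1 (10 nM, E. coli BL21(DE3)) with 0.5 μM Ac-RHKK(Ac)W-NH2 peptide and 120 μM βNAD+, 25 min at 25 °C in HEPES pH 7.5, formic acid stop. OAADPR or deacetylated peptide quantified by mass spectrometry; EC1.5 (50% activity increase over control) and Percent Maximum Activation reported.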

[1] = Trp mass spectrometry assay, EC1.5 = concentration of test compound that results in 150% activation of SIRT1
[2] = concentration giving 150% activation of SIRT1, Trp peptide substrate
[3] = Trp mass spectrometry assay, percent maximum fold activation of SIRT1, read-out: Tryp % Fold Act
[4] = Trp peptide assay, maximum activity relative to control (100%), read-out: TRP MAX RESP (percent maximum fold activation)
[5] = Trp peptide substrate, concentration giving 150% activation of SIRT1
[6] = Trp mass spectrometry assay, concentration of test compound giving 150% activation of SIRT1

SMILES: O=C(Nc1cc(Br)cc(-c2cnco2)c1)N1c2nc(-c3cccc(C(F)(F)F)c3)ccc2N2CC[C@H]1C2 [Example 562]
Tryp AVG EC1.5 (μM) [1]: A (A (EC1.5<1 μM))

SMILES: CN1CCN(c2ccnc(NC(=O)N3c4nc(-c5cccc(C(F)(F)F)c5)ccc4N4CC[C@H]3C4)n2)CC1 [Example 742]
Tryp AVG EC1.5 (μM) [2]: A (A (EC1.5<1 μM))

SMILES: O=C1OC2(c3ccc(O)cc3Oc3cc(O)ccc32)c2ccc(NC(=S)NCc3cn(C4=CC(NC(=O)N5c6nc(-c7cccc(C(F)(F)F)c7)ccc6N6CC[C@H]5C6)CC=C4)nn3)cc21 (stereo partly drawn) [Example 608]
Tryp AVG EC1.5 (μM) [1]: C (C (EC1.5>25 μM))
Emax [3]: < 150%

SMILES: O=C(Nc1ccccn1)N1c2nc(N3CCC[C@@H]3C(F)(F)F)ccc2N2CC[C@H]1C2 [(9S)-N-(pyridin-2-yl)-5-[(2R)-2-(trifluoromethyl)pyrrolidin-1-yl]-1,6,8-triazatricyclo[7.2.1.0 {2,7}]dodeca-2(7),3,5-triene-8-carboxamide]
TRP Activity (EC1.5) (Trp peptide assay): A (A (EC1.5<1 μM))
Emax [4]: > 150%

SMILES: O=C(Nc1cccc(-c2cnco2)c1)N1c2nc(N3CCCN(CC(F)(F)F)CC3)ccc2N2CC[C@H]1C2 [Example 741]
Tryp AVG EC1.5 (μM) [2]: A (A (EC1.5<1 μM))

SMILES: O=C(NCC(F)(F)F)c1ccc2c(n1)N(C(=O)Nc1ccccn1)[C@H]1CCN2C1 [(9S)-8-N-(pyridin-2-yl)-5-N-(2,2,2-trifluoroethyl)-1,6,8-triazatricyclo[7.2.1.0 {2,7}]dodeca-2(7),3,5-triene-5,8-dicarboxamide]
TRP Activity (EC1.5) (Trp peptide assay): A (A (EC1.5<1 μM))
Emax [4]: > 150%

SMILES: O=C(Nc1ccccn1)N1c2nc(N3CCC[C@@H](C(F)(F)F)C3)ccc2N2CC[C@H]1C2 [(9S)-N-(pyridin-2-yl)-5-[(3R)-3-(trifluoromethyl)piperidin-1-yl]-1,6,8-triazatricyclo[7.2.1.0 {2,7}]dodeca-2,4,6-triene-8-carboxamide]
TRP Activity (EC1.5) (Trp peptide assay): B (B (EC1.5 1-25 μM))
Emax [4]: > 150%

SMILES: O=C(NCc1ccc(NC(=O)N2c3nc(-c4cccc(C(F)(F)F)c4)ccc3N3CC[C@H]2C3)cc1)OC[C@@H]1[C@@H]2CCC#CCC[C@@H]21 [Example 796]
Tryp AVG EC1.5 (μM) [2]: B (B (EC1.5 1-25 μM))

SMILES: O=C(Nc1cccc(-c2cnco2)c1)N1c2nc(-c3cccc(Cl)c3)ccc2N2C[C@@H](O)[C@H]1C2 [Example 683]
Tryp AVG EC1.5 (μM) [2]: A (A (EC1.5<1 μM))

SMILES: O=C(Nc1ccccn1)N1c2nc(N3CC[C@H](C(F)(F)F)C3)ccc2N2CCC[C@H]1C2 [drawing 1101, (9S)-N-(pyridin-2-yl)-5-[(3S)-3-(trifluoromethyl)pyrrolidin-1-yl]-1,6,8-triazatricyclo[7.3.1.0 {2,7}]trideca-2(7),3,5-triene-8-carboxamide]
TRP Activity (EC1.5) (Trp peptide assay): B (B (EC1.5 1-25 μM))

SMILES: O=C(Nc1cccnc1)N1c2nc(-c3cncc(C(F)(F)F)c3)ccc2N2C[C@@H](O)[C@H]1C2 [Example 705]
Tryp AVG EC1.5 (μM) [2]: B (B (EC1.5 1-25 μM))

SMILES: O=C(CCCC[C@@H]1SCC2NC(=O)NC21)NCCCCCC(=O)NCc1ccc(NC(=O)N2c3nc(-c4cccc(C(F)(F)F)c4)ccc3N3CCC[C@H]2C3)cc1 (stereo partly drawn) [Example 430]
Tryp AVG EC1.5 (μM) [1]: A (A (EC1.5<1 μM))

SMILES: FC(F)(F)c1cccc(-c2ccc3c(n2)N(C(=S)Nc2cccc(-c4cnco4)c2)[C@H]2CCN3C2)c1 [Example 763]
Tryp AVG EC1.5 (μM) [2]: A (A (EC1.5<1 μM))

SMILES: O=C(Nc1cc(O)ncn1)N1c2nc(N3CCCC(C(F)(F)F)C3)ccc2N2CCC[C@H]1C2 (stereo partly drawn) [Example 361]
Tryp AVG EC1.5 (μM) [6]: A (A (EC1.5<1 μM))

SMILES: O=C(Nc1ccc(F)cn1)N1c2nc(N3CCC[C@H](C(F)(F)F)C3)ccc2N2CCC[C@H]1C2 [drawing 1208, (9S)-N-(5-fluoropyridin-2-yl)-5-[(3S)-3-(trifluoromethyl)piperidin-1-yl]-1,6,8-triazatricyclo[7.3.1.0 {2,7}]trideca-2(7),3,5-triene-8-carboxamide]
TRP Activity (EC1.5) (Trp peptide assay): B (B (EC1.5 1-25 μM))
TRP MAX RESP (percent maximum fold activation) (Trp peptide assay, maximum activity relative to control (100%)): A (A (Fold activation ≧150%))

SMILES: O=C(Nc1ccncn1)N1c2nc(-c3cccc(C(F)(F)F)c3)ccc2N2C[C@@H](O)[C@H]1C2 [Example 669]
Tryp AVG EC1.5 (μM) [2]: B (B (EC1.5 1-25 μM))

SMILES: Cc1cc(C)n(N)c1CC1C=CC(CCC(=O)NCc2cn(-c3cccc(NC(=O)N4c5nc(-c6cccc(C(F)(F)F)c6)ccc5N5CC[C@H]4C5)c3)nn2)=N1 (stereo partly drawn) [Example 622]
Tryp AVG EC1.5 (μM) [1]: C (C (EC1.5>25 μM))
Emax [3]: < 150%

SMILES: NCc1cccc(NC(=O)N2c3nc(-c4cccc(C(F)(F)F)c4)ccc3N3CC[C@H]2C3)c1 [Example 755]
Tryp AVG EC1.5 (μM) [2]: B (B (EC1.5 1-25 μM))

Other lines, results leading:

Tryp AVG EC1.5 (μM) [1]: B (B (EC1.5 1-25 μM))
SMILES: Cc1cc(-c2ccc3c(n2)N(C(=O)Nc2cnc(OC[C@@H](O)CO)cn2)[C@H]2CCN3C2)ccn1 [Example 561]

TRP Activity (EC1.5) (Trp peptide assay): B (B (EC1.5 1-25 μM))
Emax [4]: > 150%
SMILES: O=C(Nc1cnccn1)N1c2nc(N3CCCCC3)ccc2N2CC[C@H]1C2 [(9S)-5-(piperidin-1-yl)-N-(pyrazin-2-yl)-1,6,8-triazatricyclo[7.2.1.0 {2,7}]dodeca-2,4,6-triene-8-carboxamide]

Tryp AVG EC1.5 (μM) [5]: A (A (EC1.5<1 μM))
SMILES: CC(=O)c1sc(NC(=O)N2c3nc(-c4cccc(C(F)(F)F)c4)ccc3N3CC[C@H]2C3)nc1C [Example 75]

Tryp AVG EC1.5 (μM) [2]: A (A (EC1.5<1 μM))
SMILES: CCc1nnc(NC(=O)N2c3nc(-c4cccc(C(F)(F)F)c4)ccc3N3CC[C@H]2C3)s1 [Example 647]

TRP Activity (EC1.5) (Trp peptide assay): B (B (EC1.5 1-25 μM))
Emax [4]: > 150%
SMILES: CC1CCN(c2ccc3c(n2)N(C(=O)Nc2cnccn2)[C@H]2CCN3C2)CC1 [(9S)-5-(4-methylpiperidin-1-yl)-N-(pyrazin-2-yl)-1,6,8-triazatricyclo[7.2.1.0 {2,7}]dodeca-2,4,6-triene-8-carboxamide]

TRP Activity (EC1.5) (Trp peptide assay): B (B (EC1.5 1-25 μM))
Emax [4]: > 150%
SMILES: Cc1ccc(-c2ccc3c(n2)N(C(=O)Nc2cncc(C)n2)[C@H]2CCN3C2)cn1 [(9S)-N-(6-methylpyrazin-2-yl)-5-(6-methylpyridin-3-yl)-1,6,8-triazatricyclo[7.2.1.0 {2,7}]dodeca-2,4,6-triene-8-carboxamide]

Tryp AVG EC1.5 (μM) [1]: C (C (EC1.5>25 μM))
SMILES: Cc1ccncc1-c1ccc2c(n1)N(C(=O)Nc1nc(C)c(C)s1)[C@H]1CCCN2C1 [Example 508]

Tryp AVG EC1.5 (μM) [6]: A (A (EC1.5<1 μM))
SMILES: O=C(Nc1ccccn1)N1c2nc(-c3ccnc(N4CCC(C(F)(F)F)C4)c3)ccc2N2CC[C@H]1C2 (stereo partly drawn) [Example 367]

Tryp AVG EC1.5 (μM) [6]: A (A (EC1.5<1 μM))
SMILES: CN(C)c1cccc(-c2ccc3c(n2)N(C(=O)Nc2cnccn2)[C@H]2CCCN3C2)c1 [Example 403]

Tryp AVG EC1.5 (μM) [1]: B (B (EC1.5 1-25 μM))
SMILES: COc1cc(NC(=O)N2c3nc(-c4ccnc(N5CC[C@H](F)C5)c4)ccc3N3CC[C@H]2C3)ncn1 [Example 437]

Tryp AVG EC1.5 (μM) [1]: B (B (EC1.5 1-25 μM))
SMILES: CN(C)c1ccc(-c2ccc3c(n2)N(C(=O)Nc2cnccn2)[C@H]2CCN3C2)cn1 [Example 458]

TRP Activity (EC1.5) (Trp peptide assay): A (A (EC1.5<1 μM))
Emax [4]: > 150%
SMILES: Cc1cc(-c2ccc3c(n2)N(C(=O)Nc2cncc(C(C)C)n2)[C@H]2CCN3C2)ccn1 [(9S)-5-(2-methylpyridin-4-yl)-N-[6-(propan-2-yl)pyrazin-2-yl]-1,6,8-triazatricyclo[7.2.1.0^2,7]dodeca-2(7),3,5-triene-8-carboxamide]

Tryp AVG EC1.5 (μM) [2]: B (B (EC1.5 1-25 μM))
SMILES: C#CCNc1nccc(NC(=O)N2c3nc(-c4ccc(C5(C(F)(F)F)N=N5)cc4)ccc3N3CC[C@H]2C3)n1 [Example 805]

TRP Activity (EC1.5) (Trp peptide assay): A (A (EC1.5<1 μM))
Emax [4]: > 150%
SMILES: O=C(Nc1cnccn1)N1c2nc(-c3ccnc(C4CC4)c3)ccc2N2CC[C@H]1C2 [(9S)-5-(2-cyclopropylpyridin-4-yl)-N-(pyrazin-2-yl)-1,6,8-triazatricyclo[7.2.1.0 {2,7}]dodeca-2,4,6-triene-8-carboxamide]

Tryp AVG EC1.5 (μM) [1]: B (B (EC1.5 1-25 μM))
SMILES: O=C(Nc1cncc(F)c1)N1c2nc(-c3cncc(F)c3)ccc2N2CCC1CC2 [Example 571]

Tryp AVG EC1.5 (μM) [1]: A (A (EC1.5<1 μM))
SMILES: O=C(Nc1cncc(Br)c1)N1c2nc(-c3cccc(C(F)(F)F)c3)ccc2N2CC[C@H]1C2 [Example 542]

TRP Activity (EC1.5) (Trp peptide assay): B (B (EC1.5 1-25 μM))
Emax [4]: > 150%
SMILES: Cc1cc(NC(=O)N2c3nc(-c4ccnc(C)c4)ccc3N3CC[C@H]2C3)ccn1 [(9S)-N,5-bis(2-methylpyridin-4-yl)-1,6,8-triazatricyclo[7.2.1.0 {2,7}]dodeca-2(7),3,5-triene-8-carboxamide]

Tryp AVG EC1.5 (μM) [5]: B (B (EC1.5 1-25 μM))
SMILES: Cc1cc(C)nc(NC(=O)N2c3nc(-c4cccc(Cl)c4)ccc3N3CC[C@H]2C3)c1 [Example 105]

Reference: patent US9834558B2, “Substituted bridged urea analogs as sirtuin modulators” (GLAXOSMITHKLINE LLC, priority 2013, dated 2017)
